The NIST ThermoML archive (doi:10.1021/je034261a)

Assays:
[1] = for mass density: 101.33 kPa, Liquid; for Glass transition temperature / Normal melting temperature: DTA
[2] = molar heat capacity at constant pressure; settings: 101.33 kPa, Liquid, Small sample (50 mg) DSC

CCCCn1cc[n+](C)c1.F[B-](F)(F)F [1-butyl-3-methylimidazolium tetrafluoroborate]
Settings	mass density, 295.45 K [kg/m3]	mass density, 303.85 K [kg/m3]	mass density, 313.55 K [kg/m3]	mass density, 328.25 K [kg/m3]	mass density, 343.85 K [kg/m3]	molar heat capacity at constant pressure, 298.15 K [J/K/mol]	molar heat capacity at constant pressure, 323.15 K [J/K/mol]
[1]	1204.8	1200.5	1194	1185	1173.7	–	–
[2]	–	–	–	–	–	351.5	358

Settings	Glass transition temperature [°C]
[1]	-85.0

CCCCn1cc[n+](C)c1.N#CN=C=[N-] [1-butyl-3-methylimidazolium dicyanamide]
Settings	Normal melting temperature, Crystal [°C]	mass density, 297.15 K [kg/m3]	mass density, 312.95 K [kg/m3]	mass density, 324.35 K [kg/m3]	mass density, 333.95 K [kg/m3]	mass density, 344.15 K [kg/m3]	mass density, 355.85 K [kg/m3]	molar heat capacity at constant pressure, 298.15 K [J/K/mol]	molar heat capacity at constant pressure, 323.15 K [J/K/mol]
[1]	-6.0	1058	1052.5	1046.6	1041.5	1034	1025.8	–	–
[2]	–	–	–	–	–	–	–	364.6	370

Settings	Glass transition temperature [°C]
[1]	-90.0

CCn1cc[n+](C)c1C.O=S(=O)([N-]S(=O)(=O)C(F)(F)F)C(F)(F)F
Settings	Normal melting temperature, Crystal [°C]	mass density, 296.15 K [kg/m3]	mass density, 303.75 K [kg/m3]	mass density, 313.55 K [kg/m3]	mass density, 323.35 K [kg/m3]	mass density, 333.65 K [kg/m3]	molar heat capacity at constant pressure, 309.15 K [J/K/mol]	molar heat capacity at constant pressure, 323.15 K [J/K/mol]
[1]	25.0	1491.3	1485.5	1476.9	1468	1457.2	–	–
[2]	–	–	–	–	–	–	492.7	498.8

CCCCn1cc[n+](C)c1.[Cl-] [1-butyl-3-methylimidazolium chloride]
Settings	Glass transition temperature [°C]
[1]	-69.0

[2]
Settings	molar heat capacity at constant pressure [J/K/mol]
298.15 K	322.7
323.15 K	333.7

CCCCn1cc[n+](C)c1.O=S(=O)([O-])C(F)(F)F [1-butyl-3-methylimidazolium trifluoromethanesulfonate]
Settings	Normal melting temperature, Crystal [°C]	mass density, 295.75 K [kg/m3]	mass density, 303.95 K [kg/m3]	mass density, 313.35 K [kg/m3]	mass density, 328.75 K [kg/m3]	mass density, 342.95 K [kg/m3]	molar heat capacity at constant pressure, 298.15 K [J/K/mol]	molar heat capacity at constant pressure, 323.15 K [J/K/mol]
[1]	13.0	1301.3	1296.5	1289.4	1279	1270	–	–
[2]	–	–	–	–	–	–	417.2	423.1

CCCCn1cc[n+](C)c1C.F[B-](F)(F)F [1-butyl-2,3-dimethylimidazolium tetrafluoroborate]
Settings	Normal melting temperature, Crystal [°C]	mass density, 300.15 K [kg/m3]	mass density, 313.15 K [kg/m3]	mass density, 323.15 K [kg/m3]	molar heat capacity at constant pressure, 330.15 K [J/K/mol]	molar heat capacity at constant pressure, 372.15 K [J/K/mol]
[1]	37.0	1093.5	1076.2	1063.4	–	–
[2]	–	–	–	–	375.3	406.5

Settings	Glass transition temperature [°C]
[1]	-68.0

CCCC[n+]1ccn(C)c1.O=S(=O)([N-]S(=O)(=O)C(F)(F)F)C(F)(F)F
Settings	Normal melting temperature, Crystal [°C]	mass density, 296.45 K [kg/m3]	mass density, 304.15 K [kg/m3]	mass density, 313.45 K [kg/m3]	mass density, 323.35 K [kg/m3]	mass density, 333.75 K [kg/m3]	molar heat capacity at constant pressure, 298.15 K [J/K/mol]	molar heat capacity at constant pressure, 323.15 K [J/K/mol]
[1]	-2.0	1438.6	1433.6	1424.7	1414.2	1405.4	–	–
[2]	–	–	–	–	–	–	536.3	543.9

Settings	Glass transition temperature [°C]
[1]	-86.0

CCCCn1cc[n+](C)c1.[Br-] [1-butyl-3-methylimidazolium bromide]
Settings	Glass transition temperature [°C]
[1]	-50.0

[2]
Settings	molar heat capacity at constant pressure [J/K/mol]
298.15 K	316.7
323.15 K	323.6

CCCCn1cc[n+](C)c1C.F[P-](F)(F)(F)(F)F [1-butyl-2,3-dimethylimidazolium hexafluorophosphate]
Settings	mass density, 295.65 K [kg/m3]	mass density, 313.15 K [kg/m3]	mass density, 323.15 K [kg/m3]	molar heat capacity at constant pressure, 298.15 K [J/K/mol]	molar heat capacity at constant pressure, 323.15 K [J/K/mol]
[1]	1241.6	1219	1205.5	–	–
[2]	–	–	–	433.6	449.1

Settings	Glass transition temperature [°C]
[1]	-58.0

CCCCn1cc[n+](C)c1.F[P-](F)(F)(F)(F)F [1-butyl-3-methylimidazolium hexafluorophosphate]
Settings	Normal melting temperature, Crystal [°C]	molar heat capacity at constant pressure, 298.15 K [J/K/mol]	molar heat capacity at constant pressure, 323.15 K [J/K/mol]
[1]	11.0	–	–
[2]	–	397.6	405.1

Settings	Glass transition temperature [°C]
[1]	-76.0

CCn1cc[n+](C)c1.O=S(=O)([N-]S(=O)(=O)C(F)(F)F)C(F)(F)F
Settings	Normal melting temperature, Metastable crystal [°C]	mass density, 296.15 K [kg/m3]	mass density, 303.95 K [kg/m3]	mass density, 313.85 K [kg/m3]	mass density, 323.45 K [kg/m3]	mass density, 333.65 K [kg/m3]	molar heat capacity at constant pressure, 298.15 K [J/K/mol]	molar heat capacity at constant pressure, 323.15 K [J/K/mol]
[1]	-17.0	1521.3	1515.9	1506.5	1496.7	1485.8	–	–
[2]	–	–	–	–	–	–	524.3	532.2

Settings	Glass transition temperature [°C]
[1]	-92.0

CCC[n+]1ccn(C)c1C.O=S(=O)([N-]S(=O)(=O)C(F)(F)F)C(F)(F)F
Settings	mass density, 295.15 K [kg/m3]	mass density, 304.25 K [kg/m3]	mass density, 313.65 K [kg/m3]	mass density, 324.35 K [kg/m3]	mass density, 335.15 K [kg/m3]	mass density, 344.65 K [kg/m3]	molar heat capacity at constant pressure, 298.15 K [J/K/mol]	molar heat capacity at constant pressure, 323.15 K [J/K/mol]
[1]	1456.7	1454.2	1446.4	1438.6	1427.5	1415.5	–	–
[2]	–	–	–	–	–	–	554.5	558.7

Settings	Glass transition temperature [°C]
[1]	-82.0
